Measured values: patent US4241087A, “Dysmenorrhea treatment” (William H. Rorer, Inc., priority 1979, dated 1980)

Experiments:
Assay type in all cases: cell-based
[1] = tested on: Ach induced contractions in the isolated gravid rat uterus; experiment: Ach induced contractions, isolated gravid rat uterus (isometric, non-cumulative dose response); details: for inhibition at 160 µg/mL / inhibition at 40 µg/mL / inhibition at 80 µg/mL: Rattus norvegicus; for inhibition at 40 µg/mL: compound 40 μg/ml; for inhibition at 80 µg/mL: compound 80 μg/ml
Protocol: (§1) Female virgin Wistar rats at an average weight of 160 g to 220 g are used for the experiment. Prior to the experiment, the animals are housed five per group and maintained according to standard animal husbandry procedures. The animals are treated with DES (100 mg/kg/body weight) 24 hours prior to the experiment.
(§2) The stage of the estrus cycle is determined by vaginal smears on the morning of the experiment. Rats in estrus are killed by a blow on the head and the abdomen is opened. The two horns of the uterus are dissected out and transferred to a dish containing Bathing's solution (composition in g: NaCL, 8.046; KCl, 0.20; CaCl2.2H2 O, 0.132; MgCl2.6H2 O, 0.106; NaHCO3, 1.0; NaH2 PO4, 0.065; Dextrose, 1.0 distilled to 1 liter with distilled water). The two horns are separated and freed from mesentery in Bathing's solution. A thread is attached at each end of each horn and the uterine segment is mounted in a tissue bath (50 ml), maintained at 37° C. by a circulatory bath and aerated with 95% O2 5% CO2. One thread is attached to a fixed pin and the other to a transducer. Contractions are recorded isometrically on a Beckman dynograph in conjunction with a Grass force-displacement transducer (FTO3C) of which has been calibrated in g. tension, or isotonically in conjunction with a Harvard smooth muscle transducer (386). The tissue is subjected to a baseline tension of 0.5 g. The preparation is allowed to equilibrate for 30 minutes prior to the experiment.
(§3) Various spasmogens (such as: acetylcholine chloride, PGF2a, PGE2, oxytocin, BaCl2 or ergonivine maleate) may be used to induce contractions in the isolated uterine strip. See "In Vitro Methodology for Evaluation of Compound Effect on Isolated Guinea Pig Ileum" for description of obtaining dose response curve. Afer the control dose-response curve is obtained, the tissue is allowed to relax for five minutes before the addition of the spasmolytic drug (inhibitory drug). The test drug is in contact with the tissue for two minutes before the dose-response curve is repeated. The inhibitory effect of the test drug is determined as follows: [formula]
(§4) The % maximum response is calculated for each dose of the dose-response curve and the control and drug curves are plotted.
(§5) The dose-response behavior on the isolated gravid rat uterus of Acetylcholine chloride, Oxytocin and PGF2a was compared in the presence and absence of varying doses of 1-(2',6'-dimethylphenyl)-3-methylamidinourea hydrochloride using the non-cumulative dose response method.

[2] = tested on: PGF2α induced contractions in the isolated gravid rat uterus; experiment: PGF2α induced contractions, isolated gravid rat uterus (isometric, non-cumulative dose response); details: for inhibition at 40 µg/mL / inhibition at 80 µg/mL / inhibition at 160 µg/mL: Rattus norvegicus; for inhibition at 40 µg/mL: compound 40 μg/ml; for inhibition at 80 µg/mL: compound 80 μg/ml; for inhibition at 160 µg/mL: compound 160 μg/ml
Protocol: as §1, §2, §3, §4, §5

[3] = tested on: Oxytocin induced contractions in the isolated gravid rat uterus; experiment: Oxytocin induced contractions, isolated gravid rat uterus (isometric, non-cumulative dose response); details: for inhibition at 40 µg/mL / inhibition at 80 µg/mL / inhibition at 160 µg/mL: Rattus norvegicus; for inhibition at 40 µg/mL: compound 40 μg/ml; for inhibition at 80 µg/mL: compound 80 μg/ml; for inhibition at 160 µg/mL: compound 160 μg/ml
Protocol: as §1, §2, §3, §4, §5

[4] = increasing doses of compound, in vitro gravid rat uterus

CNC(=N)NC(=O)Nc1c(C)cccc1C.Cl [1-(2',6'-dimethylphenyl)-3-methylamidinourea hydrochloride]
inhibition at 160 µg/mL ([1]; ACH-2, compound 160 μg/ml, Ach 2,560 μg/ml): 67.4% | inhibition at 40 µg/mL ([1]; Ach 20 μg/ml): 100% | inhibition at 40 µg/mL ([1]; Ach 40 μg/ml): 83% | inhibition at 40 µg/mL ([1]; Ach 80 μg/ml): 79.7% | inhibition at 40 µg/mL ([1]; Ach 160 μg/ml): 46.8% | inhibition at 40 µg/mL ([1]; Ach 320 μg/ml): 2.8% | inhibition at 40 µg/mL ([1]; Ach 640 μg/ml): < 2.8% | inhibition at 80 µg/mL ([1]; Ach 20 μg/ml): 100% | inhibition at 80 µg/mL ([1]; Ach 40 μg/ml): 100% | inhibition at 80 µg/mL ([1]; Ach 80 μg/ml): 100% | inhibition at 80 µg/mL ([1]; Ach 160 μg/ml): 95.8% | inhibition at 80 µg/mL ([1]; Ach 320 μg/ml): 26.8% | inhibition at 80 µg/mL ([1]; Ach 640 μg/ml): < 26.8% | inhibition at 160 µg/mL ([1]; compound 160 μg/ml, Ach 20 μg/ml): 100% | inhibition at 160 µg/mL ([1]; compound 160 μg/ml, Ach 40 μg/ml): 100% | inhibition at 160 µg/mL ([1]; compound 160 μg/ml, Ach 80 μg/ml): 100% | inhibition at 160 µg/mL ([1]; compound 160 μg/ml, Ach 160 μg/ml): 100% | inhibition at 160 µg/mL ([1]; compound 160 μg/ml, Ach 320 μg/ml): 93.3% | inhibition at 160 µg/mL ([1]; compound 160 μg/ml, Ach 640 μg/ml): 93.6% | inhibition at 160 µg/mL ([1]; compound 160 μg/ml, Ach 1,280 μg/ml): 84.6% | inhibition at 160 µg/mL ([1]; compound 160 μg/ml, Ach 5,120 μg/ml): 61.2% | inhibition at 160 µg/mL ([1]; compound 160 μg/ml, Ach 10,240 μg/ml): 62.7% | inhibition of Acetylcholine chloride induced contractions (in words) [1, 4]: dose dependent | inhibition at 40 µg/mL ([2]; PGF2α 1 × 10^-7 M): 39.5% | inhibition at 40 µg/mL ([2]; PGF2α 1 × 10^-8 M): 99% | inhibition at 40 µg/mL ([2]; PGF2α 3 × 10^-7 M): < 39.5% | inhibition at 40 µg/mL ([2]; PGF2α 3 × 10^-8 M): 95.1% | inhibition at 80 µg/mL ([2]; PGF2α 1 × 10^-6 M): < 48.9% | inhibition at 80 µg/mL ([2]; PGF2α 1 × 10^-7 M): 64% | inhibition at 80 µg/mL ([2]; PGF2α 1 × 10^-8 M): 98.2% | inhibition at 80 µg/mL ([2]; PGF2α 3 × 10^-7 M): 48.9% | inhibition at 80 µg/mL ([2]; PGF2α 3 × 10^-8 M): 91.3% | inhibition at 160 µg/mL ([2]; PGF2α 1 × 10^-6 M): 96.1% | inhibition at 160 µg/mL ([2]; PGF2α 1 × 10^-7 M): 98.5% | inhibition at 160 µg/mL ([2]; PGF2α 1 × 10^-8 M): 100% | inhibition at 160 µg/mL ([2]; PGF2α 3 × 10^-6 M): 86.8% | inhibition at 160 µg/mL ([2]; PGF2α 3 × 10^-7 M): 96.1% | inhibition at 160 µg/mL ([2]; PGF2α 3 × 10^-8 M): 100% | inhibition of PGF2a induced contractions (in words) [2, 4]: dose dependent | inhibition at 40 µg/mL ([3]; Oxytocin 1 × 10^-4 U/ml): < 22.1% | inhibition at 40 µg/mL ([3]; Oxytocin 1 × 10^-5 U/ml): 100% | inhibition at 40 µg/mL ([3]; Oxytocin 3 × 10^-5 U/ml): 22.1% | inhibition at 80 µg/mL ([3]; Oxytocin 1 × 10^-4 U/ml): 14.4% | inhibition at 80 µg/mL ([3]; Oxytocin 1 × 10^-5 U/ml): 100% | inhibition at 80 µg/mL ([3]; Oxytocin 3 × 10^-4 U/ml): < 14.4% | inhibition at 80 µg/mL ([3]; Oxytocin 3 × 10^-5 U/ml): 48.7% | inhibition at 160 µg/mL ([3]; Oxytocin 1 × 10^-3 U/ml): 47.6% | inhibition at 160 µg/mL ([3]; Oxytocin 1 × 10^-4 U/ml): 100% | inhibition at 160 µg/mL ([3]; Oxytocin 1 × 10^-5 U/ml): 100% | inhibition at 160 µg/mL ([3]; Oxytocin 3 × 10^-3 U/ml): 32.5% | inhibition at 160 µg/mL ([3]; Oxytocin 3 × 10^-4 U/ml): 63.2% | inhibition at 160 µg/mL ([3]; Oxytocin 3 × 10^-5 U/ml): 100% | inhibition of Oxytocin induced contractions (in words) [3, 4]: dose dependent
